In patent US12344610B2, “APOL1 inhibitors and methods of use” (Maze Therapeutics, Inc., priority 2022, dated 2025):

Molecular target: T1, APOL1 G2 (Homo sapiens, UniProt O14791, DEL388-389)
T1 construct: expressed in transfected cells; host or cells: HEK293 T-REx clonal line stably expressing GCaMP6f (HEK T-REx/GCaMP6f/APOL1 G2 K6.3), doxycycline induced
T1 sequence (O14791 with tags, fused parts or gaps DEL388-389): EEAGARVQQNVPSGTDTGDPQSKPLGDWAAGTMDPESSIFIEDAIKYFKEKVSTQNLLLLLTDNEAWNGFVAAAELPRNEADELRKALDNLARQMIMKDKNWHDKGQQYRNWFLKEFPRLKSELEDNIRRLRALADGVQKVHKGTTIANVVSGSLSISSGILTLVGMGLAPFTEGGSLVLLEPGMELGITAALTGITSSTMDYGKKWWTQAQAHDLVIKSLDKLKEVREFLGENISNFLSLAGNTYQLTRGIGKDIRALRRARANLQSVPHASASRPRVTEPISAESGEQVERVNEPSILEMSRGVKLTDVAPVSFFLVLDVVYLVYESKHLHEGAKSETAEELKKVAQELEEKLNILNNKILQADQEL
Experiment: APOL1-mediated calcium transport (calcium influx) assay, HEK T-REx/GCaMP6f/APOL1 G2 K6.3 cells, FLIPR TETRA
Type: cell-based
Details: prevention of calcium influx; geometric mean of at least 2 assay runs; † = average of a technical replicate from a single assay run
Method in brief: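 A HEK293 T-REx clone stably expressing GCaMP6f had APOL1 G2 induced with doxycycline (20 ng/mL solution added) for 6 h. Cells were then washed into Ca2+-free Tyrode's buffer (pH 7.4) and preincubated with compounds (duplicate 8-point) for 10 min at room temperature. Ca2+ injection to 5 mM final produced FLIPR GCaMP fluorescence, giving AC50 for influx inhibition (geometric mean, ≥2 runs).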

Structure (SMILES) | AC50
CS(=O)(=O)c1ccc(OCCN2CCC3(CC2)C(=O)Nc2ccc(Cl)cc23)cc1C(O)CO (stereo not shown) [Compound 216, 5-chloro-1′-{2-[3-(1,2-dihydroxyethyl)-4-methanesulfonylphenoxy]ethyl}-1,2-dihydrospiro[indole-3,4′-piperidin]-2-one] | 3.14 µM
Cn1c(=O)[nH]c2cc(OCCN3CCC4(CC3)C(=O)Nc3ccc(Cl)cc34)cnc21 [Compound 247, 5-chloro-1′-[2-({3-methyl-2-oxo-1H,2H,3H-imidazo[4,5-b]pyridin-6-yl}oxy)ethyl]-1,2-dihydrospiro[indole-3,4′-piperidin]-2-one] | 0.806 µM
CNC(=O)C1(c2ccc(OCCN3CCC4(CC3)C(=O)Nc3ccc(C#N)cc34)cc2)COC1 [Compound 255, 3-[4-(2-{5-cyano-2-oxo-1,2-dihydrospiro[indole-3,4′-piperidin]-1′-yl}ethoxy)phenyl]-N-methyloxetane-3-carboxamide] | 2.64 µM
CN1C(=O)C2(CCN(CCOc3ccc(C(=O)N4CCS(=O)(=O)CC4)c(C(F)(F)F)c3)CC2)c2cc(C#N)ccc21 [Compound 261, 1′-{2-[4-(1,1-dioxo-1λ^6-thiomorpholine-4-carbonyl)-3-(trifluoromethyl)phenoxy]ethyl}-1-methyl-2-oxo-1,2-dihydrospiro[indole-3,4′-piperidine]-5-carbonitrile] | 1.46 µM
CC(COc1ccc(C2(S(C)(=O)=O)COC2)cc1)N1CCC2(CC1)C(=O)Nc1ccc(C#N)cc12 (single isomer, unassigned) [Compound 263, (S) or (R)-1′-{1-[4-(3-methanesulfonyloxetan-3-yl)phenoxy]propan-2-yl}-2-oxo-1,2-dihydrospiro[indole-3,4′-piperidine]-5-carbonitrile] | 2.54 µM
CS(=O)(=O)N1CC2(CN(C(=O)c3ccc(OCCN4CCC5(CC4)C(=O)Nc4ccc(Cl)cc45)cc3F)C2)C1 [Compound 273, 5-chloro-1′-[2-(3-fluoro-4-{6-methanesulfonyl-2,6-diazaspiro[3.3]heptane-2-carbonyl}phenoxy)ethyl]-1,2-dihydrospiro[indole-3,4′-piperidin]-2-one] | 2.1 µM
CS(=O)(=O)c1ccc(OCCN2CCC3(CC2)C(=O)Nc2ccc(Cl)cc23)cc1C(F)CF (single isomer, unassigned) [Compound 219, 5-chloro-1′-(2-{3-[(1R or 1S)-1,2-difluoroethyl]-4-methanesulfonylphenoxy}ethyl)-1,2-dihydrospiro[indole-3,4′-piperidin]-2-one] | 0.835 µM
C[C@]1(O)C[C@H](N2C(=O)CCc3cc(OCCN4CCC5(CC4)C(=O)Nc4ccc(Cl)cc45)cnc32)C1 (single isomer, unassigned) [Compound 307, 5-chloro-1′-[2-({7-oxo-8-[(trans)-3-hydroxy-3-methylcyclobutyl]-5,6,7,8-tetrahydro-1,8-naphthyridin-3-yl}oxy)ethyl]-1,2-dihydrospiro[indole-3,4′-piperidin]-2-one] | 0.32 µM
CS(=O)(=O)C1CN(C(=O)c2ccc(OCCN3CCC4(CC3)C(=O)Nc3ccc(Cl)cc34)cc2F)C1 [Compound 233, 5-chloro-1′-{2-[3-fluoro-4-(3-methanesulfonyl-azetidine-1-carbonyl)phenoxy]ethyl}-1,2-dihydrospiro[indole-3,4′-piperidin]-2-one] | 1.16 µM
CNC(=O)N1CCc2cc(OCCN3CCC4(CC3)C(=O)Nc3ccc(Cl)cc34)ccc2C1 [Compound 245, 6-(2-{5-chloro-2-oxo-1,2-dihydrospiro[indole-3,4′-piperidin]-1′-yl}ethoxy)-N-methyl-1,2,3,4-tetrahydroisoquinoline-2-carboxamide] | 0.718 µM
O=C1Nc2ccc(Cl)cc2C12CCN(CCOc1ccc(S(=O)(=O)C3(CO)CC3)nc1)CC2 [Compound 248, 5-chloro-1′-{2-[(6-{[1-(hydroxymethyl)cyclopropyl]sulfonyl}pyridin-3-yl)oxy]ethyl}-1,2-dihydrospiro[indole-3,4′-piperidin]-2-one] | 0.82 µM
CS(=O)(=O)c1ccc(OCCN2CCC3(CC2)C(=O)Nc2ccc(Cl)cc23)cc1C(F)F [Compound 197, 5-chloro-1′-{2-[3-(difluoromethyl)-4-methanesulfonylphenoxy]ethyl}-1,2-dihydrospiro[indole-3,4′-piperidin]-2-one] | 0.889 µM
CC(O)c1ncc(OCCN2CCC3(CC2)C(=O)Nc2ccc(Cl)cc23)cc1C(F)(F)F (single isomer, unassigned) [Compound 292, 5-chloro-1′-[2-({6-[(1S) or (1R)-1-hydroxyethyl]-5-(trifluoromethyl)pyridin-3-yl}oxy)ethyl]-1,2-dihydrospiro[indole-3,4′-piperidin]-2-one] | 1.3 µM
CC(O)c1ncc(OCCN2CCC3(CC2)C(=O)Nc2ccc(C(F)F)cc23)cc1C(F)(F)F (single isomer, unassigned) [Compound 287, 5-(difluoromethyl)-1′-[2-({6-[(1S) or (1R)-1-hydroxyethyl]-5-(trifluoromethyl)pyridin-3-yl}oxy)ethyl]-1,2-dihydrospiro[indole-3,4′-piperidin]-2-one] | 0.303 µM
NC1CN(C(=O)c2ccc(OCCN3CCC4(CC3)C(=O)Nc3ccc(Cl)cc34)cc2F)C1 [Compound 236, 1′-{2-[4-(3-aminoazetidine-1-carbonyl)-3-fluorophenoxy]ethyl}-5-chloro-1,2-dihydrospiro[indole-3,4′-piperidin]-2-one] | 0.634 µM
N#Cc1ccc2c(c1)C1(CCN(CCOc3ccc(C(N)=O)c(C(F)F)c3)CC1)C(=O)N2 [Compound 250, 4-(2-{5-cyano-2-oxo-1,2-dihydrospiro[indole-3,4′-piperidin]-1′-yl}ethoxy)-2-(difluoromethyl)benzamide] | 0.559 µM
CNC(=O)c1ccc(OCCN2CCC3(CC2)C(=O)Nc2ccc(Cl)cc23)cc1F [Compound 229, 4-(2-{5-chloro-2-oxo-1,2-dihydrospiro[indole-3,4′-piperidin]-1′-yl}ethoxy)-2-fluoro-N-methylbenzamide] | 0.792 µM
O=C1Nc2ccc(Cl)cc2C12CCN(CCOc1cnc(N3CC(O)C3)nc1)CC2 [Compound 301, 5-chloro-1′-(2-{[2-(3-hydroxyazetidin-1-yl)pyrimidin-5-yl]oxy}ethyl)-1,2-dihydrospiro[indole-3,4′-piperidin]-2-one] | 0.586 µM
NC(=O)c1ccc(OCCN2CCC3(CC2)C(=O)Nc2ccc(Cl)cc23)cc1C(F)F [Compound 249, 4-(2-{5-chloro-2-oxo-1,2-dihydrospiro[indole-3,4′-piperidin]-1′-yl}ethoxy)-2-(difluoromethyl)benzamide] | 0.433 µM
C[C@@H](COc1ccc2c(cnn2C)c1)N1CCC2(CC1)C(=O)Nc1ccc(Cl)cc12 (single isomer, unassigned) [Compound 211] | 1.29 µM
CC(=O)N(C)CCS(=O)(=O)c1ccc(OCCN2CCC3(CC2)C(=O)Nc2ccc(Cl)cc23)cc1 [Compound 193, N-{2-[4-(2-{5-chloro-2-oxo-1,2-dihydrosiro[indole-3,4′-piperidin]-1′-yl}ethoxy)benzenesulfonyl]ethyl}-N-methylacetamide] | 1.27 µM
CC(O)c1ncc(OCCN2CCC3(CC2)C(=O)Nc2ccc(Cl)cc23)cn1 (single isomer, unassigned) [Compound 286, 5-chloro-1′-[2-({2-[(1R) or (1S)-1-hydroxyethyl]pyrimidin-5-yl}oxy)ethyl]-1,2-dihydrospiro[indole-3,4′-piperidin]-2-one] | 0.917 µM
